Results published in a melting point compilation (Tetko et al.).
Non-standard residues stand in square brackets, D forms with d. Residues, ends and D or L forms follow the SMILES beside them. ξ: configuration not given here. *: point of attachment. X1 = COC1=CC(=O)N(C(=O)C(O*)C(C)C)C1Cc1ccccc1; ξNMe2Val = CC(C)C(C(=O)*)N(C)C; NMeV = CN[CH](C(=O)O)C(C)C

Structure (SMILES)	melting point
Cc1ccc(S(=O)(=O)N2CCOCCN(S(=O)(=O)c3ccc(C)cc3)CCN(S(=O)(=O)c3ccc(C)cc3)CCN(S(=O)(=O)c3ccc(C)cc3)CC2)cc1	198 to 201 °C
O=C(CCl)Nc1nc(-c2ccco2)c(C(=O)c2ccccn2)s1	184 to 185 °C
FC(F)(F)C(F)(F)C(F)(F)C(F)(F)C(F)(F)C(F)(F)C(F)(F)C(F)(F)CCCCCCC1(CCCCCCC(F)(F)C(F)(F)C(F)(F)C(F)(F)C(F)(F)C(F)(F)C(F)(F)C(F)(F)F)c2cc(Br)ccc2-c2ccc(Br)cc21	82 to 83 °C
COC(=O)c1ccccc1CN1C(=O)C2(COc3cc4c(cc32)OCO4)c2ccccc21 (stereo unspecified)	166 to 167 °C
Nc1n[nH]cc1C(=O)O	135 °C
COc1ccccc1C(=C/C=C/C(=O)O)c1ccccc1OC	196 to 197 °C
CN(c1cccc2cc(C3=NCC(C(=O)N4CCOCC4)S3)[nH]c12)S(=O)(=O)c1cccs1 (stereo unspecified)	238 to 239 °C
CCOC(=O)C(C)c1cc(C)c(C(=O)c2ccc(Cl)cc2)n1C (stereo unspecified)	88 to 90 °C
Cc1cccc(-c2cc3ccccc3c(Cl)n2)n1	142 to 144 °C
CC(C)(C)c1cc(Cc2cc(C(C)(C)C)cc(-n3nc4ccc(S(=O)(=O)c5ccccc5)cc4n3)c2O)c(O)c(-n2nc3ccc(S(=O)(=O)c4ccccc4)cc3n2)c1	224 to 234 °C
[C-]#[N+]CCCS(=O)(=O)c1ccc(C)cc1	37 to 38 °C
[C-]#[N+]CCC(O)COc1ccc(C(C)(C)C)cc1 (stereo unspecified)	69 to 72 °C
Cc1ccc(N(C)c2cccs2)cc1O	131 to 133 °C
CCOP(=O)(OCC)Oc1ccc([N+](=O)[O-])cc1	35 to 38 °C
COC1=CC(=O)N(C(=O)C(OC(=O)C2CCCN2C(=O)C2CCCN2C(=O)C(C(C)C)N(C)C(=O)C(NC(=O)C(C(C)C)N(C)C)C(C)C)C(C)C)C1Cc1ccccc1 (stereo unspecified) (ξNMe2Val-V[NMeV]PP-X1; configuration not given here)	143 to 148 °C
CN(Cc1ccccc1)Cc1c(-c2ccc([N+](=O)[O-])cc2)sc2c1c(=O)n(-c1ccccc1)c(=O)n2Cc1c(F)cccc1F	173 to 174 °C
Cc1c(O)cc(C(C)(C)C)c(O)c1C(=O)Nc1ccc(S(=O)(=O)C(F)(F)F)cc1Cl	163 to 166 °C
COc1cc(OC)c(/C=C/C(c2ccc(OC)c(NC(=O)c3ccc([N+](=O)[O-])cc3)c2)S(=O)(=O)C(/C=C/c2c(OC)cc(OC)cc2OC)c2ccc(OC)c(NC(=O)c3ccc([N+](=O)[O-])cc3)c2)c(OC)c1 (stereo unspecified)	206 to 208 °C
Cc1cc(C(F)(F)F)ccc1Cn1nc(OC(C)C)cc1CCCOc1ncccc1CC(=O)O	105 to 107 °C
OCCOc1ccc(-c2ccc(OCCO)cc2)cc1	201 to 202 °C
O=C(O)C1=Cc2cc(Br)ccc2NC1C(F)(F)F (stereo unspecified)	185 to 186 °C
O=C1CCc2cc(O)c(I)cc21	114 to 115 °C
CCN(CC)CCN=S(=O)(c1cccs1)c1cccs1	131 °C
Cc1ccc(S(=O)(=O)N2CCN(S(=O)(=O)c3ccc(C)cc3)CC(Cc3ccc(O)cc3)N(S(=O)(=O)c3ccc(C)cc3)N(S(=O)(=O)c3ccc(C)cc3)CC2)cc1 (stereo unspecified)	192 to 193 °C
COc1cc(NC(=O)N2CCCC2)c(S(C)(=N)=O)cc1OC (stereo unspecified)	312 to 314 °C

More lines, now with the values ahead:

melting point	Structure (SMILES)
31 to 32.1 °C	CCCCCCCCCCCC(=O)OC(CCCCCCCCCCC)CC(=O)NC(CCOP(=O)(Oc1ccccc1)Oc1ccccc1)C(=O)OCc1ccccc1 (stereo unspecified)
71 to 73 °C	O=C(OCc1ccc(OCCCCCCCCCCC2c3c(c4ccccc4c4ccccc34)-c3c2c2ccccc2c2ccccc32)cc1)c1cn(C2CC2)c2cc(F)c(F)cc2c1=O
80 to 82 °C	C=CCOC1OC(CO)C(O)C(OC(=O)CC(CCCCCCCCCCC)OCc2ccccc2)C1NC(=O)CC(CCCCCCCCCCC)OCc1ccccc1 (stereo unspecified)
160 to 162 °C	C=CCNc1nc(NC(C)(C)CC(C)(C)C)nc(N(CCCCCCN(c2nc(NCC=C)nc(NC(C)(C)CC(C)(C)C)n2)C2CC(C)(C)NC(C)(C)C2)C2CC(C)(C)NC(C)(C)C2)n1
112 to 114 °C	[N-]=[N+]=C(C(=O)OCCN(CCOC(=O)C(=[N+]=[N-])C(=O)C1CCCCC1)CCN(CCOC(=O)C(=[N+]=[N-])C(=O)C1CCCCC1)CCOC(=O)C(=[N+]=[N-])C(=O)C1CCCCC1)C(=O)C1CCCCC1
150 to 152 °C	CCCCCCCCCCCCCCCCCCSCCOC1OC(COC(C)=O)C(OC2OC(COC(C)=O)C(OC3OC(COC(C)=O)C(OC(C)=O)C(OC(C)=O)C3OC(C)=O)C(OC(C)=O)C2OC(C)=O)C(OC(C)=O)C1N1C(=O)c2ccccc2C1=O (stereo unspecified)
135 to 137 °C	O=c1cc(-c2ccc(OCCOCCOCCOCCOCCOCCOCCOCCOCCOc3ccc(-c4cc(=O)c5c(O)cc(O)cc5o4)cc3)cc2)oc2cc(O)cc(O)c12
180 to 183 °C	CCCCCCCCCCCCS(=O)(=O)c1cc2c(cc1S(=O)(=O)CCCCCCCCCCCC)C(=O)c1c(c(O)c3cc(S(=O)(=O)CCCCCCCCCCCC)c(S(=O)(=O)CCCCCCCCCCCC)cc3c1O)C2=O
238 to 242 °C	CNC(=O)OC(COc1ccc(C(C)(C)c2ccc(OCC(CN3C(=O)NC4(CC(C)(C)NC(C)(C)C4)C3=O)OC(=O)NC)cc2)cc1)CN1C(=O)NC2(CC(C)(C)NC(C)(C)C2)C1=O (stereo unspecified)
85 to 91 °C	CN(C(=O)C(CC(Cc1ccccc1)C(N)=O)NC(=O)OCc1ccccc1)c1ccc(OCC(=O)NC(CC(N)=O)C(=O)NC(Cc2ccccc2)C(O)C(=O)N2CCCC2C(=O)NC(C)(C)C)cc1 (stereo unspecified)
147 to 149 °C	CC(=O)OC(COc1ccc(C(C)(C)c2ccc(OCC(CN3C(=O)NC4(CC(C)(C)N(C(C)=O)C(C)(C)C4)C3=O)OC(C)=O)cc2)cc1)CN1C(=O)NC2(CC(C)(C)N(C(C)=O)C(C)(C)C2)C1=O (stereo unspecified)
53 to 57 °C	CN1C(C)(C)CC2(CC1(C)C)NC(=O)N(CC(O)COC(=O)CCCCCCCCCCC(=O)OCC(O)CN1C(=O)NC3(CC(C)(C)N(C)C(C)(C)C3)C1=O)C2=O (stereo unspecified)
188 to 192 °C	CCc1c(CCNC(=O)CCC(=O)CCC(=O)NCCc2ccc(OCc3ccccc3)c(OCc3ccccc3)c2CC)ccc(OCc2ccccc2)c1OCc1ccccc1
68 to 86 °C	CCCCCCCCNc1nc(NCCCCC2CC(C)(C)N(OCC(C)(C)O)C(C)(C)C2)nc(NCCCCC2CC(C)(C)N(OCC(C)(C)O)C(C)(C)C2)n1
189 °C	CC(=O)N1C(C)(C)CC(OC(=O)C(Cc2cc(C)c(O)c(C(C)(C)C)c2)(Cc2cc(C)c(O)c(C(C)(C)C)c2)C(=O)OC2CC(C)(C)N(C(C)=O)C(C)(C)C2)CC1(C)C
95 °C	CCN(C(=O)OC(C)(C)C)C(=NC(=O)OC(C)(C)C)N1CCN(C(=O)[C@@H]2CCCN2S(=O)(=O)c2ccc(Cl)c(COc3cccc4ccc(C)nc34)c2Cl)CC1

melting point	Structure (SMILES)
126 °C	CC(C)(CCCCCCCCC(C)(C)NC(=O)C(C)(C)Cc1cc(C(C)(C)C)c(O)c(C(C)(C)C)c1)NC(=O)C(C)(C)Cc1cc(C(C)(C)C)c(O)c(C(C)(C)C)c1
129 to 130 °C	CCOCc1nc(C(C)(C)O)c(C(=O)OCc2oc(=O)oc2C)n1Cc1ccc(-c2ccccc2-c2nnnn2C(c2ccccc2)(c2ccccc2)c2ccccc2)cc1
96 °C	CC(=O)ON=NCc1ccc(C(=O)NCCCNC(=O)[C@@H]2CCCN2S(=O)(=O)c2ccc(Cl)c(COc3cccc4c(-n5ccnc5)cc(C)nc34)c2Cl)cc1
121 to 122 °C	O=C(OCCCCCCOc1ccc(-c2ccccc2)cc1)c1cc([N+](=O)[O-])ccc1-c1ccc([N+](=O)[O-])cc1C(=O)OCCCCCCOc1ccc(-c2ccccc2)cc1
160 to 161 °C	CC[C@H](C)[C@H](NC(=O)N(C)Cc1ccccn1)C(=O)NC(Cc1ccccc1)C(O)C(O)C(Cc1ccccc1)NC(=O)[C@@H](NC(=O)N(C)Cc1ccccn1)[C@@H](C)CC (stereo partly specified)
180 to 190 °C	CCNC(=O)[C@@H]1CCCN1C(=O)[C@H](CCCNC(=N)N)NC(=O)[C@H](CC(C)C)NC(=O)[C@@H](Cc1ccc2ccccc2c1)NC(=O)[C@H](Cc1ccc(O)cc1)NC(=O)[C@H](CO)NC(=O)[C@H](Cc1c[nH]c2ccccc12)NC(=O)[C@H](Cc1c[nH]cn1)NC(=O)[C@@H]1CCC(=O)N1
> 220 °C	CC(C)C[C@H](NC(=O)[C@H](C)NC(=O)[C@H](C)NC(=O)OC(C)(C)C)C(=O)NCCNc1ccc(NCCNC(=O)[C@H](CC(C)C)NC(=O)[C@H](C)NC(=O)[C@H](C)NC(=O)OC(C)(C)C)c2c1C(=O)c1c(O)ccc(O)c1C2=O
115 to 120 °C	CCCCOC(=O)Nc1nc(CN(C)C(=O)N[C@H](C(=O)N[C@@H](Cc2ccccc2)C[C@H](O)[C@H](Cc2ccccc2)NC(=O)[C@@H](NC(=O)N(C)Cc2csc(NC(=O)OCCCC)n2)C(C)C)C(C)C)cs1
45 to 55 °C	Cc1cc(CCC(=O)OCC(COC(=O)CCc2cc(C)c(O)c(C(C)(C)C)c2)(COC(=O)CCc2cc(C)c(O)c(C(C)(C)C)c2)COC(=O)CCc2cc(C)c(O)c(C(C)(C)C)c2)cc(C(C)(C)C)c1O
66 to 68 °C	CCCCCCCCCCCCCCCCCCCCCCCC[C@@H](C(=O)O)[C@H](O)CCCCCCCCCCCCCCC[C@@H]1C[C@@H]1CCCCCCCCCCCCCCCCCCC(=O)[C@@H](C)CCCCCCCCCCCCCCCCCC
93.9 to 95 °C	CCCCCCCCCCOc1c(-c2nc3ccccc3s2)sc(-c2sc(-c3nc4ccccc4s3)c(OCCCCCCCCCC)c2OCCCCCCCCCC)c1OCCCCCCCCCC
116 to 119 °C	CC(C)CC1C(=O)OC(Cc2ccc(OCc3ccco3)cc2)C(=O)N(C)C(CC(C)C)C(=O)OC(C)CN(C)C(CC(C)C)C(=O)OC(Cc2ccc(OCc3ccco3)cc2)C(=O)N(C)C(CC(C)C)C(=O)OC(C)CN1C (stereo unspecified)
44 to 45 °C	CCCCCCCCCCCCSc1c(SCCCCCCCCCCCC)c(SCCCCCCCCCCCC)c(SCCCCCCCCCCCC)c(SCCCCCCCCCCCC)c1SCCCCCCCCCCCC
51.5 to 52.5 °C	CCCCCCCCCCCCCCCCCC[Si](C)(C)O[C@@H]1c2cc(Br)ccc2-c2ccc(Br)cc2[C@H]1O[Si](C)(C)CCCCCCCCCCCCCCCCCC (relative stereo)
98 to 110 °C	CC(C)(C)OC(=O)CC[C@H](NC(=O)CNC(=O)[C@H](CSC(c1ccccc1)(c1ccccc1)c1ccccc1)NC(c1ccccc1)(c1ccccc1)c1ccccc1)C(=O)OC(C)(C)C
